From article PMC2779455, “The E3 Ubiquitin-Ligase Bmi1/Ring1A Controls the Proteasomal Degradation of Top2α Cleavage Complex – A Potentially New Drug Target” (PLoS ONE, 2009)

Target: T1, Ring1A (Homo sapiens, UniProt Q06587)
T1 construct: gene RING1; recombinant GST fusion of Ring1A (N-terminal HA tag, C-terminal six-histidine tag) in complex with GST-Bmi1, from E. coli; with Bmi1
T1 sequence (Q06587 1-406): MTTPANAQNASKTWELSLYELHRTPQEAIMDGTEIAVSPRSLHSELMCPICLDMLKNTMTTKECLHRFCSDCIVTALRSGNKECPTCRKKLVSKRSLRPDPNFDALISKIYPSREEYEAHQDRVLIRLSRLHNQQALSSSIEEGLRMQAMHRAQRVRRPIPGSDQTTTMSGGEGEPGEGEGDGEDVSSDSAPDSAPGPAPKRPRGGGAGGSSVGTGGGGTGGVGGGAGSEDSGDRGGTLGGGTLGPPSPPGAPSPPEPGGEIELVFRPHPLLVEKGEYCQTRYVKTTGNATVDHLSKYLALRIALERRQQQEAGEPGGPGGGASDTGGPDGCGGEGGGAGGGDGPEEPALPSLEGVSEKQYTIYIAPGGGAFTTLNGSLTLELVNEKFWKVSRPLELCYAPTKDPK
T1 sequence (P35226 1-326 partner): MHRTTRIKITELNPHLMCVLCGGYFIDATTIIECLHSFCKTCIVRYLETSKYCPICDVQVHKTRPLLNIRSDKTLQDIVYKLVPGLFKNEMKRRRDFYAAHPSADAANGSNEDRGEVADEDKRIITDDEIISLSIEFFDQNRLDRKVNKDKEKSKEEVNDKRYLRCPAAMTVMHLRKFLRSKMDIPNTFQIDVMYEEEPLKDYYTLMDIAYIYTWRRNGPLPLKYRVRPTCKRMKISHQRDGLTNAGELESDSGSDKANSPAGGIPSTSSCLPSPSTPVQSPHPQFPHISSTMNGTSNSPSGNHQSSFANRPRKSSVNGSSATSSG
Assay: cell-free HTRF ubiquitination assay (E1, UbcH5a, Flag-ubiquitin), confirmed by gel-based Western blot
Format: biochemical

IC50: 3.9 µM
SMILES: O=C1C(=Cc2cccnc2)C(=O)c2ccccc21 [PRT4165]
